Results published in US7163589B2 (priority 2001, dated 2007).

Test system: Mouse immunoglobulin (IgG)

COC(F)(F)C(F)(F)C(F)(F)C(F)(F)F [HFE-7100, methyl nonafluorobutyl ether]
Effect on protein conformation (denaturation): changes the conformation of the proteins
